Where two headings read alike, the source gives them in different places.
Tests used:
Type in all cases: in vivo
6C3HED lymphosarcoma = experiment: animal or person
Lewis Lung Carcinoma = experiment: Inhibition of Lewis Lung Carcinoma growth in mice; settings: IP, DX 10
Experimental: (§1) The compounds were tested in C3H mice bearing a 6C3HED lymphosarcoma, also known as the Gardner lymphosarcoma (GLS), and in a variety of human tumor xenografts in CD1 nu/nu mice, including CX-1, LX-1, HXGC3, and VRC5. The 6C3HED lymphosarcoma was obtained from the Division of Cancer Treatment, National […] Institute, Tumor Bank, maintained at E. G. and G. Mason Research (Worcester, Mass.). The CX-1 human colon carcinoma and the LX-1 human lung carcinoma xenografts were obtained from the National Cancer Institute. The HXGC3 and VRC5 human colon xenografts were obtained from Dr. P. J. Houghton, St. Jude Children's Hospital in Memphis (see Br. J. Cancer, 37, 213 (1978)). First passage tumor was stored in liquid nitrogen using standard techniques. The transplanted tumor was reestablished from the Tumor Bank every six months or as needed. The tumor was maintained by serial passage twice weekly in C3H mice.
(§2) In the procedure the tumor was removed from passage animals and minced into 1- to 3-mm square fragments using sterile techniques. Tumor pieces were checked for sterility using both Antibiotic Medium 1 and Brain Heart Infusion (Difco, Detroit, Mich.). Recipient mice were shaved and tumor pieces were implanted subcutaneously in the auxiliary region by trocar. Drug therapy on the appropriate schedule was initiated on the day after tumor implant for 6C3HED and after a seven (7) day delay for xenografts (or other delay as noted in Table 2). The compound being tested was mixed with 2.5% Emulphor EL620 from GAF Corporation (1:40 dilution in saline). Food and water were provided ad libitium. The drug was administered orally in 0.5 ml of 2.5% Emulphor (unless otherwise indicated). The tumor was measured the day after treatment ended with two dimensional measurements (width and length) of the tumor taken using automated digital calipers interfaced to a microcomputer. Approximate weight for the tumor was calculated using the following formula [Worzalla, J. F., et al., Invest. New Drugs, 8, 241 (1990], (tumor weight in mg)=(width in mm)^2 ×(length in mm)/2.
(§3) At least one control group of an equal number of mice was treated with the same volume of 2.5% Emulphor only. The percent inhibition was determined by subtracting the ratio of the mean tumor size of the test group relative to the control group from one and multiplying the result times 100.
(§4) The results of several experiments in mice bearing a 6C3HED lymphosarcoma (or other tumor where indicated) when the indicated compounds were administered are provided in Table 2. In Table 2, column 1 gives the Example number of the compound used, column 2 lists the dose level in mg/kg, column 3 provides the percent inhibition of tumor growth, column 4 gives the number of mice which died relative to the total number of animals in the group, column 5 gives the method of administration of the compound, and column 6 gives the dosage schedule. The protocol used with other tumors was the same as with the 6C3HED lymphosarcoma.
(m) Tumor type Lewis Lung Carcinoma

CA755 adenocarcinoma = settings: IP, DX 10
Experimental: as §1, §2, §3, §4
(h) Tumor type CA755 adenocarcinoma

ELC2 = experiment: Inhibition of ELC2 tumor growth in mice; settings: IP, DX 10
Experimental: as §1, §2, §3, §4

M5 Ovarian Carcinoma = settings: IP, DX 10, from day 5 after implant
Experimental: as §1, §2, §3, §4
(n) Tumor type M5 Ovarian Carcinoma

C3H mammary adenocarcin = settings: IP, DX 10
Experimental: as §1, §2, §3, §4
(g) Tumor type C3H mammary adenocarcin

colon carcinoma26 = settings: IP, DX 10
Experimental: as §1, §2, §3, §4
(i) Tumor type colon carcinoma26

Cc1ccc(S(=N)(=O)NC(=O)Nc2ccc(Cl)cc2)cc1C (centres unmarked) [Example 36, N-[[(4-chlorophenyl)amino]carbonyl]-3,4-dimethylbenzenesulfonimidamide]
Tox/Tot (mice which died / total) (6C3HED lymphosarcoma; IP, 0.25 mg/kg, BIDX 8): 0/10 | Tox/Tot (mice which died / total) (6C3HED lymphosarcoma; IP, 0.5 mg/kg, BIDX 8): 0/10 | Tox/Tot (mice which died / total) (6C3HED lymphosarcoma; IP, 1 mg/kg, BIDX 8): 0/10 | Tox/Tot (mice which died / total) (6C3HED lymphosarcoma; IP, 2 mg/kg, BIDX 8): 0/10 | Tox/Tot (mice which died / total) (6C3HED lymphosarcoma; IP, 3.125 mg/kg, DX 8): 0/10 | Tox/Tot (mice which died / total) (6C3HED lymphosarcoma; IP, 4 mg/kg, BIDX 8): 0/10 | Tox/Tot (mice which died / total) (6C3HED lymphosarcoma; IP, 6.25 mg/kg, DX 8): 0/10 | Tox/Tot (mice which died / total) (6C3HED lymphosarcoma; IP, 12.5 mg/kg, DX 8): 1/10 | Tox/Tot (mice which died / total) (6C3HED lymphosarcoma; IP, 12.5 mg/kg, Days 1, 3, 5, 7): 0/10 | Tox/Tot (mice which died / total) (6C3HED lymphosarcoma; IP, 25 mg/kg, DX 8): 2/10 | Tox/Tot (mice which died / total) (6C3HED lymphosarcoma; IP, 25 mg/kg, Days 1, 3, 5, 7): 0/10 | Tox/Tot (mice which died / total) (6C3HED lymphosarcoma; IP, 50 mg/kg, DX 8): 6/10 | Tox/Tot (mice which died / total) (6C3HED lymphosarcoma; IP, 50 mg/kg, Days 1, 3, 5, 7): 0/10 | Tox/Tot (mice which died / total) (6C3HED lymphosarcoma; IP, 100 mg/kg, Days 1, 3, 5, 7): 3/10 | inhibition in vivo at 0.25 mg/kg (6C3HED lymphosarcoma; Mus musculus, 6C3HED, ip, read-out: % inhibition of tumor growth, IP, 0.25 mg/kg, BIDX 8): 16% | inhibition in vivo at 0.5 mg/kg (6C3HED lymphosarcoma; Mus musculus, 6C3HED, ip, read-out: % inhibition of tumor growth, IP, 0.5 mg/kg, BIDX 8): 29% | inhibition in vivo at 1 mg/kg (6C3HED lymphosarcoma; Mus musculus, 6C3HED, ip, read-out: % inhibition of tumor growth, IP, 1 mg/kg, BIDX 8): 43% | inhibition in vivo at 2 mg/kg (6C3HED lymphosarcoma; Mus musculus, 6C3HED, ip, read-out: % inhibition of tumor growth, IP, 2 mg/kg, BIDX 8): 75% | inhibition in vivo at 3.125 mg/kg (6C3HED lymphosarcoma; Mus musculus, 6C3HED, ip, read-out: % inhibition of tumor growth, IP, 3.125 mg/kg, DX 8): 74% | inhibition in vivo at 4 mg/kg (6C3HED lymphosarcoma; Mus musculus, 6C3HED, ip, read-out: % inhibition of tumor growth, IP, 4 mg/kg, BIDX 8): 97% | inhibition in vivo at 6.25 mg/kg (6C3HED lymphosarcoma; Mus musculus, 6C3HED, ip, read-out: % inhibition of tumor growth, IP, 6.25 mg/kg, DX 8): 93% | inhibition in vivo at 12.5 mg/kg (6C3HED lymphosarcoma; Mus musculus, 6C3HED, ip, read-out: % inhibition of tumor growth, IP, 12.5 mg/kg, DX 8): 98% | inhibition in vivo at 12.5 mg/kg (6C3HED lymphosarcoma; Mus musculus, 6C3HED, ip, read-out: % inhibition of tumor growth, IP, 12.5 mg/kg, Days 1, 3, 5, 7): 88% | inhibition in vivo at 25 mg/kg (6C3HED lymphosarcoma; Mus musculus, 6C3HED, ip, read-out: % inhibition of tumor growth, IP, 25 mg/kg, DX 8): 100% | inhibition in vivo at 25 mg/kg (6C3HED lymphosarcoma; Mus musculus, 6C3HED, ip, read-out: % inhibition of tumor growth, IP, 25 mg/kg, Days 1, 3, 5, 7): 99% | inhibition in vivo at 50 mg/kg (6C3HED lymphosarcoma; Mus musculus, 6C3HED, ip, read-out: % inhibition of tumor growth, IP, 50 mg/kg, DX 8): 100% | inhibition in vivo at 50 mg/kg (6C3HED lymphosarcoma; Mus musculus, 6C3HED, ip, read-out: % inhibition of tumor growth, IP, 50 mg/kg, Days 1, 3, 5, 7): 99% | inhibition in vivo at 100 mg/kg (6C3HED lymphosarcoma; Mus musculus, 6C3HED, ip, read-out: % inhibition of tumor growth, IP, 100 mg/kg, Days 1, 3, 5, 7): 100% | inhibition in vivo at 6.25 mg/kg (6C3HED lymphosarcoma; Mus musculus, 6C3HED, po, read-out: % inhibition of tumor growth, oral, 6.25 mg/kg, BIDX 8): 100% | inhibition in vivo at 12.5 mg/kg (6C3HED lymphosarcoma; Mus musculus, 6C3HED, po, read-out: % inhibition of tumor growth, oral, 12.5 mg/kg, BIDX 8): 100% | inhibition in vivo at 25 mg/kg (6C3HED lymphosarcoma; Mus musculus, 6C3HED, po, read-out: % inhibition of tumor growth, oral, 25 mg/kg, BIDX 8): 100% | inhibition in vivo at 50 mg/kg (6C3HED lymphosarcoma; Mus musculus, 6C3HED, po, read-out: % inhibition of tumor growth, oral, 50 mg/kg, BIDX 8): 100% | inhibition in vivo at 150 mg/kg (6C3HED lymphosarcoma; Mus musculus, 6C3HED, po, read-out: % inhibition of tumor growth, oral, 150 mg/kg, BIDX 8): 99% | Tox/Tot (mice which died / total) (6C3HED lymphosarcoma; oral, 6.25 mg/kg, BIDX 8): 2/8 | Tox/Tot (mice which died / total) (6C3HED lymphosarcoma; oral, 12.5 mg/kg, BIDX 8): 5/8 | Tox/Tot (mice which died / total) (6C3HED lymphosarcoma; oral, 25 mg/kg, BIDX 8): 2/8 | Tox/Tot (mice which died / total) (6C3HED lymphosarcoma; oral, 50 mg/kg, BIDX 8): 7/8 | % inhibition of tumor growth (6C3HED lymphosarcoma; oral, 100 mg/kg, BIDX 8): TOX | Tox/Tot (mice which died / total) (6C3HED lymphosarcoma; oral, 100 mg/kg, BIDX 8): 8/8 | Tox/Tot (mice which died / total) (6C3HED lymphosarcoma; oral, 150 mg/kg, BIDX 8): 6/10 | % inhibition of tumor growth (6C3HED lymphosarcoma; oral, 300 mg/kg, BIDX 8): TOX | Tox/Tot (mice which died / total) (6C3HED lymphosarcoma; oral, 300 mg/kg, BIDX 8): 10/10 | % inhibition of tumor growth (Lewis Lung Carcinoma; 7.5 mg/kg): 6% | Tox/Tot (mice which died / total) (Lewis Lung Carcinoma; 7.5 mg/kg): 0/10 | % inhibition of tumor growth (Lewis Lung Carcinoma; 15 mg/kg): 32% | Tox/Tot (mice which died / total) (Lewis Lung Carcinoma; 15 mg/kg): 0/10 | % inhibition of tumor growth (Lewis Lung Carcinoma; 30 mg/kg): 34% | Tox/Tot (mice which died / total) (Lewis Lung Carcinoma; 30 mg/kg): 0/10 | % inhibition of tumor growth (CA755 adenocarcinoma; 3.75 mg/kg): 26% | Tox/Tot (mice which died / total) (CA755 adenocarcinoma; 3.75 mg/kg): 0/10 | % inhibition of tumor growth (CA755 adenocarcinoma; 7.5 mg/kg): 1% | Tox/Tot (mice which died / total) (CA755 adenocarcinoma; 7.5 mg/kg): 0/10 | % inhibition of tumor growth (CA755 adenocarcinoma; 15 mg/kg): 42% | Tox/Tot (mice which died / total) (CA755 adenocarcinoma; 15 mg/kg): 0/10 | % inhibition of tumor growth (CA755 adenocarcinoma; 30 mg/kg): 72% | Tox/Tot (mice which died / total) (CA755 adenocarcinoma; 30 mg/kg): 0/10 | % inhibition of tumor growth (ELC2; 7.5 mg/kg): 0% | Tox/Tot (mice which died / total) (ELC2; 7.5 mg/kg): 0/10 | % inhibition of tumor growth (ELC2; 15 mg/kg): 3% | Tox/Tot (mice which died / total) (ELC2; 15 mg/kg): 0/10 | % inhibition of tumor growth (ELC2; 30 mg/kg): TOX | Tox/Tot (mice which died / total) (ELC2; 30 mg/kg): 10/10 | % inhibition of tumor growth (M5 Ovarian Carcinoma; 3.75 mg/kg): 10% | Tox/Tot (mice which died / total) (M5 Ovarian Carcinoma; 3.75 mg/kg): 0/10 | % inhibition of tumor growth (M5 Ovarian Carcinoma; 7.5 mg/kg): 19% | Tox/Tot (mice which died / total) (M5 Ovarian Carcinoma; 7.5 mg/kg): 0/10 | % inhibition of tumor growth (M5 Ovarian Carcinoma; 15 mg/kg): 47% | Tox/Tot (mice which died / total) (M5 Ovarian Carcinoma; 15 mg/kg): 0/10 | % inhibition of tumor growth (M5 Ovarian Carcinoma; 30 mg/kg): 38% | Tox/Tot (mice which died / total) (M5 Ovarian Carcinoma; 30 mg/kg): 1/10 | % inhibition of tumor growth (C3H mammary adenocarcin; 3.75 mg/kg): 38% | Tox/Tot (mice which died / total) (C3H mammary adenocarcin; 3.75 mg/kg): 1/10 | % inhibition of tumor growth (C3H mammary adenocarcin; 7.5 mg/kg): 69% | Tox/Tot (mice which died / total) (C3H mammary adenocarcin; 7.5 mg/kg): 0/10 | % inhibition of tumor growth (C3H mammary adenocarcin; 15 mg/kg): 74% | Tox/Tot (mice which died / total) (C3H mammary adenocarcin; 15 mg/kg): 6/10 | % inhibition of tumor growth (C3H mammary adenocarcin; 30 mg/kg): TOX | Tox/Tot (mice which died / total) (C3H mammary adenocarcin; 30 mg/kg): 10/10 | % inhibition of tumor growth (colon carcinoma26; 3.75 mg/kg): 5% | Tox/Tot (mice which died / total) (colon carcinoma26; 3.75 mg/kg): 0/10 | % inhibition of tumor growth (colon carcinoma26; 7.5 mg/kg): 14% | Tox/Tot (mice which died / total) (colon carcinoma26; 7.5 mg/kg): 0/10 | % inhibition of tumor growth (colon carcinoma26; 15 mg/kg): 6% | Tox/Tot (mice which died / total) (colon carcinoma26; 15 mg/kg): 0/10 | % inhibition of tumor growth (colon carcinoma26; 30 mg/kg): 26% | Tox/Tot (mice which died / total) (colon carcinoma26; 30 mg/kg): 0/10

Source: patent publication US5258406A, “Sulfonimidamides” (priority 1992, dated 1993)
